From ChEMBL document CHEMBL3351451, “In search of next generation antimalarials” (Bioorg Med Chem Lett, 2014) come the findings set out here.

SMILES strings stand for the structures. Active and inactive are the calls of the source. The rule behind the calls is not given here.

Data set [1] deals with Plasmodium berghei. Put plainly: Antimalarial activity against Plasmodium berghei infected in mouse assessed as cure at 160 mg/kg measured at 60 days post-infection. It is filed as functional, organism-based. Details: dose 160 mg/kg.
In data set [2] the test system is Plasmodium berghei. In words: Antimalarial activity against Plasmodium berghei infected in mouse assessed as cure at 640 mg/kg measured at 60 days post-infection. The data set is classed as functional, organism-based. Details: dose 640 mg/kg.
For data set [3], the system named is Plasmodium berghei. Put plainly: Antimalarial activity against Plasmodium berghei infected in mouse assessed as cure at 320 mg/kg measured at 60 days post-infection. It is filed as functional, organism-based. Details: dose 320 mg/kg.
The test system of data set [4] is Plasmodium berghei. Put plainly: Antimalarial activity against Plasmodium berghei infected in mouse assessed as survival time at 20 mg/kg (reference value: 6.1 days). The data set is classed as functional.
Data set [5] deals with Plasmodium cynomolgi. In words: Antimalarial activity against Plasmodium cynomolgi infected in rhesus monkey assessed as curative activity at 0.1 mg/kg administered daily for 7 days. The data set is classed as functional, organism-based. Details: dose 0.1 mg/kg.
Data set [6] has as its system Plasmodium cynomolgi. In words: Antimalarial activity against Plasmodium cynomolgi infected in rhesus monkey assessed as curative activity at 1 mg/kg administered daily for 7 days. It is filed as functional, organism-based. Details: dose 1 mg/kg.
The test system of data set [7] is Plasmodium berghei. Put plainly: Antimalarial activity against Plasmodium berghei infected in mouse assessed as survival time at 5 mg/kg (reference value: 6.1 days). The data set is classed as functional.
The subject of data set [8] is Plasmodium berghei. Put plainly: Antimalarial activity against Plasmodium berghei infected in mouse assessed as cure at 80 mg/kg measured at 60 days post-infection. It is filed as functional, organism-based. Details: dose 80 mg/kg.
Data set [9] has as its system Mus musculus. Put plainly: Toxicity in mouse infected with Plasmodium berghei at 640 mg/kg. It is filed as organism-based. Details: dose 640 mg/kg. The settings on record: in vivo.
The test system of data set [10] is Mus musculus. In words: Toxicity in mouse infected with Plasmodium berghei at 320 mg/kg. Particulars: in vivo. The data set is classed as organism-based. Details: dose 320 mg/kg.
Data set [11] has as its system Mus musculus. In words: Toxicity in mouse infected with Plasmodium berghei at 160 mg/kg. The data set is classed as organism-based. Details: dose 160 mg/kg. The settings on record: in vivo.
For data set [12], the system named is Plasmodium berghei. Put plainly: Antimalarial activity against Plasmodium berghei infected in mouse assessed as cure at 10 mg/kg measured at 60 days post-infection. It is filed as functional, organism-based. Details: dose 10 mg/kg.
Data set [13] deals with Plasmodium cynomolgi. In words: Antimalarial activity against Plasmodium cynomolgi infected in rhesus monkey assessed as curative activity at 0.316 mg/kg administered daily for 7 days. The data set is classed as functional, organism-based. Details: dose 0.316 mg/kg.
For data set [14], the system named is Plasmodium berghei. Put plainly: Antimalarial activity against Plasmodium berghei infected in mouse assessed as cure at 20 mg/kg measured at 60 days post-infection. The data set is classed as functional, organism-based. Details: dose 20 mg/kg.
For data set [15], the system named is Plasmodium berghei. Put plainly: Antimalarial activity against Plasmodium berghei infected in mouse assessed as cure at 40 mg/kg measured at 60 days post-infection. It is filed as functional, organism-based. Details: dose 40 mg/kg.
The subject of data set [16] is Plasmodium berghei. In words: Antimalarial activity against Plasmodium berghei infected in mouse assessed as cure at 5 mg/kg measured at 60 days post-infection. The data set is classed as functional, organism-based. Details: dose 5 mg/kg.

Consider `COc1cc(NC(C)CCCN)c2nccc(C)c2c1OCCCCCCCCCc1ccccc1.O=C(O)/C=C/C(=O)O` (configuration not stated), for which the result with Plasmodium berghei [1], in the data set on Plasmodium berghei [2] and in the data set on Plasmodium berghei [3] was Active. The MST in the data set on Plasmodium berghei [4] is 8.5 days.

Take `COc1cc(NC(C)CCCN)c2nccc(C)c2c1OCCCCc1ccccc1.O=C(O)/C=C/C(=O)O` (configuration not stated): the result with Plasmodium cynomolgi [5] was inactive. Further, the outcome in the data set on Plasmodium cynomolgi [6] and with Plasmodium berghei [8] was Active. For the same molecule, the MST in the data set on Plasmodium berghei [7] amounted to 7.6 days.

On to `COc1cc(NC(C)CCCN)c2nccc(C)c2c1OCCCc1ccccc1.O=C(O)/C=C/C(=O)O` (configuration not stated), for which the Activity entry in the data set on Mus musculus [9], in the data set with Mus musculus [10] and in the data set with Mus musculus [11] was “Toxic” in each case. In addition, the result with Plasmodium cynomolgi [6] and in the data set on Plasmodium berghei [12] was Active.

For `COc1cc(NC(C)CCCN)c2nccc(C)c2c1OCCCCCCCc1ccccc1` (configuration not stated), the outcome in the data set with Plasmodium cynomolgi [5] and with Plasmodium cynomolgi [13] was inactive. Further, the outcome with Plasmodium berghei [1], in the data set with Plasmodium cynomolgi [6], in the data set with Plasmodium berghei [2], with Plasmodium berghei [3], in the data set with Plasmodium berghei [12] and in the data set with Plasmodium berghei [14] was Active. In addition, the outcome with Plasmodium berghei [15] and in the data set with Plasmodium berghei [8] was Active.

For the molecule `CCCCCOc1c(OC)cc(NC(C)CCCN)c2nccc(C)c12` (configuration not stated), the Activity result in the data set on Mus musculus [9] and with Mus musculus [10] was “Toxic” throughout. The result with Plasmodium cynomolgi [6], in the data set on Plasmodium berghei [12] and with Plasmodium berghei [16] was Active.

In the case of `COc1cc(NC(C)CCCN)c2nccc(C)c2c1OCCCCCCc1ccccc1.O=C(O)/C=C/C(=O)O` (configuration not stated), the outcome in the data set with Plasmodium cynomolgi [5] was inactive. In addition, the outcome in the data set with Plasmodium cynomolgi [6] and in the data set on Plasmodium cynomolgi [13] was Active. For the same molecule, in the data set on Plasmodium berghei [7], the MST came out at 5.9 days.

Take `COc1cc(NC(C)CCCN)c2nccc(C)c2c1OCCCCCc1ccco1.O=C(O)/C=C/C(=O)O` (configuration not stated): the outcome in the data set on Plasmodium berghei [1], with Plasmodium berghei [15] and with Plasmodium berghei [8] was Active. For the same molecule, the MST in the data set with Plasmodium berghei [7] stood at 7.7 days.

Take `COc1cc(NC(C)CCCN)c2nccc(C)c2c1OCCCCCc1ccccc1.O=C(O)/C=C/C(=O)O` (configuration not stated): the result with Plasmodium berghei [1], in the data set with Plasmodium cynomolgi [6], with Plasmodium cynomolgi [13], in the data set with Plasmodium berghei [15] and in the data set on Plasmodium berghei [8] was Active. The MST with Plasmodium berghei [7] was determined as 7.9 days.

With `COc1cc(NC(C)CCCN)c2nccc(C)c2c1OCCCCCc1cccs1.O=C(O)/C=C/C(=O)O` (configuration not stated), the MST in the data set on Plasmodium berghei [7] was determined as 6.6 days. Besides, the outcome in the data set with Plasmodium berghei [14], in the data set on Plasmodium berghei [15] and in the data set on Plasmodium berghei [8] was Active.

`COc1cc(NC(C)CCCN)c2nccc(C)c2c1OCCCCCCCCc1ccccc1.O=C(O)/C=C/C(=O)O` (configuration not stated): the result in the data set with Plasmodium berghei [1], in the data set with Plasmodium berghei [2], in the data set on Plasmodium berghei [3], in the data set on Plasmodium berghei [15] and in the data set on Plasmodium berghei [8] was Active. Further, the MST with Plasmodium berghei [7] came out at 5.7 days.
